Measured values published in ChEMBL document CHEMBL1122521, “Nucleic acid related compounds. 47. Synthesis and biological activities of pyrimidine and purine "acyclic" nucleoside analogues” (J Med Chem, 1984).
Values after ≈ are worked out from the molar mass of the structure shown.

Test system: Vaccinia virus
Assay: Concentration required to reduce cytopathogenicity of vaccinia virus by 50% in primary rabbit kidney (PRK) cells
Assay type: functional, Orthopoxvirus vaccinia

Row | SMILES | ID50
1 | Nc1nc2c(nc(I)n2COCCO)c(=O)[nH]1 | >400 µg/mL
2 | CNc1nc2c(=O)[nH]c(N)nc2n1COCCO | >400 µg/mL
3 | CN(C)c1nc2c(=O)[nH]c(N)nc2n1COCCO | >=300 ug ml-1
4 | Nc1nc2c(nc(O)n2COCCO)c(=O)[nH]1 | >400 µg/mL
5 | Nc1nc2c(nc(Br)n2COCCO)c(=O)[nH]1 | >400 µg/mL
6 | Nc1nc(Cl)c2ncn(COCCO)c2n1 | 70 µg/mL (≈ 287 µM)
7 | Nc1ccn(COCCO)c(=O)n1 | >400 µg/mL
8 | CC(=O)OCCOCn1cnc2c(Cl)nc(N)nc21 | 70 µg/mL (≈ 245 µM)
9 | Nc1nc(O)c2nc(N3CCCCC3)n(COCCO)c2n1 | >400 µg/mL
10 | CC(=O)OCCOCn1cnc2c(Cl)ncnc21 | 20 µg/mL (≈ 73.9 µM)
11 | Nc1nc2c(nc(N)n2COCCO)c(=O)[nH]1 | >100 µg/mL
12 | Nc1ncnc2c1ncn2COCCO | 20 µg/mL (≈ 95.6 µM)
13 | Cc1nc2c(O)nc(N)nc2n1COCCO | >400 µg/mL
14 | Nc1nc2c(ncn2COCCO)c(=O)[nH]1 [ACYCLOVIR] | 50 µg/mL (≈ 222 µM)
15 | O=c1[nH]c(=O)n([C@H]2C[C@H](O)[C@@H](CO)O2)cc1/C=C/Br [BRIVUDINE] | 7 µg/mL (≈ 21 µM)
16 | O=c1[nH]c(=O)n([C@H]2C[C@H](O)[C@@H](CO)O2)cc1I [IDOXURIDINE] | 0.2 µg/mL (≈ 0.565 µM)
